Assay results: patent US20080090893A1, “Medicinal Composition for Prevention of Transition to Operative Treatment for Prostatic Hypertrophy” (Kissei Pharmaceutial Co., Ltd., priority 2004, published 2008)
Where a name gives a salt, the structure may show the parent alone.

Legend:
[1] = tested on: patients of benign prostatic hyperplasia who are subject to surgical therapy (overall severity severe); assay: Placebo-controlled, parallel groups-comparing double blind trial, 12 weeks oral administration (I-PSS total score, QOL score); type: in vivo
Experimental: Based on the results of a placebo-controlled, parallel groups-comparing double blind trial carried out in patients of benign prostatic hyperplasia, clinical effects of silodosin and tamsulosin hydrochloride in patients who are subject to surgical therapy were evaluated. As the patients who are subject to surgical therapy, patients whose overall severity before administration was “severe” based on the criteria for judging overall severity (Non-patent Reference 3) were extracted.
Objects: 147 patients who are subject to surgical therapy for benign prostatic hyperplasia
Administration method: oral administration for 12 weeks
Administered groups: Silodosin group (4 mg silodosin/once, twice a day, 63 patients), Tamsulosin group (0.2 mg tamsulosin hydrochloride, once a day, 55 patients) and Placebo group (placebo drug, 29 patients).
Primary endpoints: I-PSS total score, QOL score
Criteria for judging overall severity: in the severity of respective judging items shown in Table 1, the overall severity is regarded as “severe” when “severe” is present in 2 items or more. In this connection, the Qmax in the table means maximum flow rate (mL/second), RU means residual urine volume (mL) and PV means estimated prostate volume (mL) by ultrasonic tomography.
I-PSS items questioned • (1) Sensation of residual urine
The scores of (1) to (6) are as follows.
Not at all: 0 point, less than 1 time in 5: 1 point, less than 1 time in 2: 2 points, about 1 time in 2: 3 points, more than 1 time in 2: 4 points, almost always: 5 points. • (7) Nocturia
None: 0 point, 1 time: 1 point, 2 times: 2 points, 3 times: 3 points, 4 times: 4 points, 5 times or more: 5 points.
Very satisfied 0 point, satisfied: 1 point, generally satisfied: 2 points, neither satisfied nor unsatisfied: 3 points, a little unsatisfied: 4 points, unsatisfied: 5 points, very unsatisfied: 6 points.
Regarding the case of patients whose overall severity before administration was severe based on the criteria for judging overall severity (Non-patent Reference 3), changes in I-PSS total score and QOL score at the final evaluation were compared. The results are shown in Table 2 and Table 3, respectively.
Next, the effect of each administration group to improve the severity of I-PSS total score was evaluated in the patients of benign prostatic hyperplasia whose overall severity before administration was severe.

[2] = tested on: patients of benign prostatic hyperplasia who are subject to surgical therapy (overall severity moderate and severe); assay: Long-term administration test, 52 weeks (maximum flow rate Qmax); type: in vivo; settings: 4 mg silodosin twice a day oral
From the text: Based on the results from a long-term administration test in patients of benign prostatic hyperplasia, effects of silodosin on objective symptoms of patients who are subject to surgical therapy were examined. As the patients who are subject to surgical therapy, patients whose overall severities before administration were “moderate” and “severe” according to the criteria for judging overall severity described in the above Table 1 were extracted.
Objects: 229 patients who are subject to surgical therapy for benign prostatic, hyperplasia
Analyzed groups: 101 severe patients (reduced to 2 mg/once in 9 cases among them), 128 moderate patients (reduced to 2 mg/once in 17 cases among them)

[3] = severity of I-PSS total score, severe patients
[4] = overall severity before administration severe, oral, silodosin 4 mg twice a day, tamsulosin hydrochloride 0.2 mg once a day

SMILES	Severity of subjective symptoms at the end, Mild (0-7), number of patients [1, 3]	Severity of subjective symptoms at the end, Moderate (8-19), % of patients [1, 3]	Severity of subjective symptoms at the end, Moderate (8-19), number of patients [1, 3]	Severity of subjective symptoms at the end, Severe (20-35), % of patients [1, 3]	Severity of subjective symptoms at the end, Severe (20-35), number of patients [1, 3]	Maximum flow rate (Qmax), change after 52 weeks (mean ± SD) ([2]; Moderate group)	Maximum flow rate (Qmax), change after 52 weeks (mean ± SD) ([2]; Moderate group, listed as silodosin)	Maximum flow rate (Qmax), change after 52 weeks (mean ± SD) ([2]; Severe group)	Maximum flow rate (Qmax), change after 52 weeks (mean ± SD) ([2]; Severe group, listed as silodosin)	Change in I-PSS at the end Mean ± standard deviation [1, 4]	Change in QOL at the end Mean ± SD [1, 4]	Severity of subjective symptoms at the end, Mild (0-7), % of patients [1, 3]
C[C@H](Cc1cc2c(c(C(N)=O)c1)N(CCCO)CC2)NCCOc1ccccc1OCC(F)(F)F [Silodosin, (−)-1-(3-hydroxypropyl)-5-((2R)-2-{[2-({2-[(2,2,2-trifluoroethyl)oxy]phenyl}oxy)ethyl]amino}propyl)-2,3-dihydro-1H-indole-7-carboxamide]	24	(52.4%)	33	(9.5%)	6	2.3 ± 5.3 mL/s	2.3 mL/s	3.2 ± 4.9 mL/s	3.2 mL/s	–	–	–
CCOc1ccccc1OCCN[C@H](C)Cc1ccc(OC)c(S(N)(=O)=O)c1 [Tamsulosin, tamsulosin hydrochloride]	12	(61.8%)	34	(16.4%)	9	–	–	–	–	−8.6 ± 6.2^3) N.S.	−1.5 ± 1.3^3) N.S.	(21.8%)
